In US20230035592A1, “DIRECT AMPK ACTIVATOR COMPOUNDS COMBINED WITH INDIRECT AMPK ACTIVATOR COMPOUNDS, COMPOSITIONS, METHODS AND USES THEREOF” (SOCIETE DES PRODUITS NESTLE S.A., priority 2019, published 2023):

Tests used:
AMPK = experiment: pACC HTRF (Cisbio) assay, phosphorylation of ACC in U-2 OS Flp-In T-REx cells; format: cell-based; conditions: for phosphorylation of the AMPK substrate ACC (ratio 665/620 nm): varying concentrations, 30 mins at 37 C
Description: U-2 OS cells were treated with varying concentrations of compound 1 for 30 mins at 37 C. Phosphorylation of ACC was assessed using the HTRF Cisbio (pACC kit).
U-2 OS cells were treated with varying concentrations of compound 1 for 30 mins at 37 C in the presence or absence of 11 μM of compound 2. Phosphorylation of ACC was assessed using the HTRF Cisbio (pACC kit).
First, we monitored the activation of AMPK within cells using the indirect activator, compound 1. U-2 OS Flp-In T-REx cells were seeded at 50 K in a 96-well plate and left overnight at 37 C in DMEM GlutaMAX (Thermo Fisher Scientific) supplemented with 10% (vol/vol) FBS and 100 U/ml penicillin G, and 100 μg/ml streptomycin. Cells were treated for 30 mins with varying concentrations of Compound 1 in media lacking FBS and then cells were lysed in 50 μl of Cisbio lysis buffer #1 supplemented with blocking solution as per the manufacturer's protocol (Cisbio). Cells were lysed for 30 mins at room temperature before 16 μl of lysate was incubated with 4 μl of the HTRF antibodies (1:40 dilution of the acceptor and donor (p)ACC antibodies, as per the manufacturers protocol). Lysates were incubated overnight with the antibodies before the 665 nm/620 nm ratio was determined using a MolecularDevices i3 plate reader (with a HTRF cartridge add-on).
To investigate whether treatment of compound 1 with our new identified direct benzocoumarin AMPK activator, compound 2, could improve the activation of AMPK, cells were treated for 30 mins with varying concentrations of compound 1 in the presence or absence of 11 μM compound 2. Cells were cultured and analysed according to example 1.

AMPK β1 WT = experiment: pACC HTRF assay in AMPKβ1/β2 double knockout U-2 OS cells stably expressing β1 WT; format: cell-based, human
Description: (§1) The β1 WT or β1 S108A mutant were stably expressed in AMPKβ1β2 double knockout cells and were treated with varying concentrations of compound 1 for 30 mins at 37 C in the presence or absence of 11 μM of compound 2. Phosphorylation of ACC was assessed using the HTRF Cisbio (pACC kit).
(§2) AMPKβ1/β2 double knockout U-2 OS Flp-In™ T-Rex™ cell lines were generated by Horizon Discovery (Cambridge, UK). Cells were genotyped and analysed by Western blotting to confirm that there was a complete knockout of AMPKβ1/β2. We took these AMPKβ1/β2 double knockout cells, and re-introduced the expression of human β1 wild-type (WT) or a β1 Serine 108 to alanine mutation (S108A). This was achieved using the Flp-In™ system (Invitrogen) present in this cell line and stable cells expressing β1 WT or a β1 S108A mutant were generated according to the manufacturers' protocols. Re-expression of the β1 subunit was confirmed by Western blot analysis.
(§3) Cells stably expressing β1 WT or a β1 S108A mutant were treated with varying concentrations of Compound 1 in the presence or absence of a fixed concentration (11 μM) of compound 2. Cells lysates were subjected to the pACC HTRF (Cisbio) assay to determine the level of phosphorylation of the AMPK substrate, ACC, in cell lysates, as in example 1.

[1] = system: AMPK complexes containing the β2 isoform subunit; experiment: pACC HTRF assay in AMPKβ1/β2 double knockout U-2 OS cells stably expressing β2 WT isoform; format: cell-based, human; conditions: fixed 11 μM compound 2 with varying concentrations of compound 1
Description: U-2 OS cells AMPKβ1β2 double knockout cells stably expressing AMPK β2 were treated with varying concentrations of compound 1 for 30 mins at 37 C in the presence or absence of 11 μM of compound 2. Phosphorylation of ACC was assessed using the HTRF Cisbio (pACC kit).
We took AMPKβ1/β2 double knockout cells, and re-introduced the expression of the human β2 WT isoform. […] Cells stably expressing β2 WT were treated with varying concentrations of Compound 1 in the absence or presence of a fixed concentration (11 μM) of compound 2. Cell lysates were subjected to the pACC HTRF (Cisbio) assay to determine the level of phosphorylation of the AMPK substrate, ACC, in cell lysates, as in Example 1. […] Direct activation AMPK by binding to the ADaM site was impaired or abolished in β2-containing complexes in vitro and in cells. The inability of compound 2 to improve the activation of AMPK by compound 1, was consistent with the knowledge we have generated showing the compound 2 binds to the ADaM-site of AMPK. […] Low doses of compound 1 in combination with compound 2 could activate AMPK.

[2] = system: ADaM-binding site AMPK mutant (β1 S108A); experiment: pACC HTRF assay in AMPKβ1/β2 double knockout U-2 OS cells stably expressing β1 S108A mutant; format: cell-based, human; conditions: fixed 11 μM compound 2 with varying concentrations of compound 1
Description: as §1, §2, §3

Row | SMILES | phosphorylation of the AMPK substrate ACC (ratio 665/620 nm) (AMPK) | phosphorylation of the AMPK substrate ACC (ratio 665/620 nm) (AMPK; listed as compound 1) | pACC (fold increase in activation) (AMPK β1 WT; cells stably expressing β1 WT, varying concentrations, 30 mins at 37 C) | effect on the dose-response curve of compound 1 (pACC) [1] | effect on the dose-response curve of compound 1 (pACC) (AMPK; fixed 11 μM compound 2 with varying concentrations of compound 1, 30 mins) | effect on the dose-response curve of compound 1 (pACC) [2] | effect on the dose-response curve of compound 1 (pACC) (AMPK β1 WT; β1 WT cells, fixed 11 μM compound 2 with varying concentrations of compound 1)
1 | O=c1oc2cc(O)ccc2c2ccccc12 [Compound 1, 3-hydroxy-6H-benzo[c]chromen-6-one] | increased the phosphorylation of the AMPK substrate, ACC, in a dose-dependent manner | increases the phosphorylation of the AMPK substrate, ACC, in a dose-dependent manner | able to dose-dependently increase pACC |  |  |  | 
2 | COc1cc(O)c2c(c1)c(=O)oc1cc(O)ccc12 [Compound 2, 3,10-Dihydroxy-8-methoxy-6H-benzo[c]chromen-6-one] |  |  |  | did not improve the dose-response curve | left-shift in the dose-response curve | not able to cause a left-shift and improvement | capable of causing a left-shift and improvement
